Source: patent US20200079785A1, “MITOMYCIN C PRODRUG LIPOSOME FORMULATIONS AND USES THEREOF” (MALLINCKRODT LLC, priority 2016, published 2020)
Read-outs that look alike come from different tables or passages of the source.

Columns and labels:
[1] = test system: HT29 colorectal adenocarcinoma cells; experiment: In vitro cell kill assay; type: cell-based
Description: MCC, MMC prodrugs, and liposomal MMC prodrugs were evaluated in an in vitro cell kill assay. MMC, MMC prodrug, and liposomal MMC prodrug samples were diluted in DPBS as a starting concentration, then serially diluted 1:3 in DPBS (i.e., 70 μL:140 μL). HT29 colorectal adenocarcinoma cells were plated at 100 μL/well in 10% FBS/McCoy's 5a+Pen/Strep media at 5×10^4 cells/mL, based on approximated 24-h doubling time. The plates were incubated at 37° C. overnight to allow the cells to adhere. Next, 10 μL/well treatment dose of MMC, MMC prodrug, or liposomal MMC prodrug was added to the wells, and the plates were incubated at 37° C. […] After a 2-h incubation, the media was removed from the plate and 100 μL/well drug-free media was added before returning to the incubator. After a 24-h incubation, the media was removed from the plate and 100 μL/well drug-free media was added before returning to the incubator. After a 72-h incubation, the media was removed from all of the plates and 100 μL/well drug-free media with 10% Alamar was added to each and returned to the incubator.
Cell viability was measured using WST-1 cell proliferation colorimetric assay or AlamarBlue. 50 mL of 10% WST/McCoy's 5a media was prepared from 5 mL of WST+45 mL of media; 50 mL of 10% Alamar Blue/McCoy's 5a media was prepared from 5 mL of Alamar Blue+45 mL of media. 10% WST/McCoy's 5a media or 10% Alamar Blue/McCoy's 5a was added, and the plates were returned to the incubator to develop, followed by subsequent reading of the fluorescence or absorbance.

[2] = Plasma pharmacokinetics of liposomal MMC prodrugs in mice; type: in vivo
Excerpt: The plasma pharmacokinetics of liposomal MMC prodrugs and free MMC were studied in mice. The liposomal MMC prodrugs are described in Table 6 below.
Animals were randomized into five (5) groups, each with 18 mice.
Three animals were sacrificed at the appropriate time points post injection. Blood samples were taken for pharmacokinetic analysis at each time point (Table 8). Approximately 0.4 mls of blood was collected, via cardiac puncture under isoflurane anesthesia, into a lithium heparin tube and placed on ice. The samples were spun to obtain the plasma, which were stored in microfuge tubes at −80° C.

[3] = test system: HT29 colorectal adenocarcinoma xenografts
Description: The anti-tumor activity of liposomal MMC prodrugs were evaluated in female Hsd:Athymic Nude-Foxn1^nu/nu mice (approximately 25 g) implanted subcutaneous with HT29 colorectal adenocarcinoma cells or (1×10^6). Once tumors reached a median size of 200 mm^3, animals were randomized into five (5) groups, normalized by tumor volume. Animals without tumors were not included in this study. […]
According to NCI euthanasia guidelines, mice were removed from the study if they loss 20% of their initial bodyweight or became moribund or if their tumor volume exceeded 2500 mm^3 or if the tumor ulcerated. Tumor volume was measured with the TumorImager system at least twice per week and calculated with the TumorManager software, and mice were weighed twice per week.
Tumor volume was expressed as mean and median and plotted as a function of time. Animals removed from the study due to excess tumor size beyond 2500 mm^3 had values carried forward as 2500 mm^3 in the median plot only. Groups with less than 50% animals remaining were not carried forward for further tumor analysis. The following parameters were determined from tumor size and survival analysis: tumor growth inhibition (TGI), tumor growth delay (TGD), and median survival. The ratio of treated versus control tumor volume (% T/C) was calculated as: […]
Statistical significance of observed differences between growth curves were evaluated by One-Way ANOVA followed by posthoc test if significant.
In another study, mice bearing HT29 colorectal adenocarcinoma xenografts were given a single intravenous dose of liposomal MMC Prodrugs (MP-3854 or MP-3861), free MMC, or saline and the results are summarized FIGS. 7 and 8 and Table 10 below.
In another study, mice bearing HT29 colorectal adenocarcinoma xenografts were given a single intravenous dose of liposomal MMC Prodrug (W-3854) or saline and the results are summarized FIG. 10 and Table 12 below.
In a further study, mice bearing HT29 colorectal adenocarcinoma xenografts were given a single intravenous dose of liposomal MMC Prodrug (W-3854) or saline and the results are summarized FIG. 11 and Table 13 below.

A549 NSCLC xenografts = experiment: In vivo anti-tumor activity, A549 xenografts; parameters: species or system mice; details: single IV, 5 mg/kg MMC-eq
[4] = in vivo; cited from earlier work
[5] = Conversion of MMC prodrug to MMC in cysteine solution (HPLC); type: physicochemical; details: cysteine solution pH 6.95, 37° C., after 2 h
[6] = 2 h drug incubation, read-out: IC50
[7] = 24 h drug incubation, read-out: IC50
[8] = 72 h drug incubation, read-out: IC50
[9] = Table 10, single IV, 3 mg/kg MMC-eq
[10] = Table 10, single IV, 5 mg/kg MMC-eq

Compound: CO[C@@]12[C@H](COC(N)=O)C3=C(C(=O)C(C)=C(N)C3=O)N1C[C@H]1[C@@H]2N1C(=O)OCc1ccc(SSCCN2CCCCC2)cc1 [MP-3832, 4-((2-(piperidin-1-yl)ethyl)disulfanyl)benzyl(1aS,8S,8aR,8bS)-6-amino-8-((carbamoyloxy)methyl)-8a-methoxy-5-methyl-4,7-dioxo-1a,4,7,8,8a,8b-hexahydroazirino[2′,3′:3,4]pyrrolo[1,2-α]indole-1(2H)-carboxylate]
- IC50 [1, 6]: 4.7 µM
- IC50 [1, 7]: 1.44 µM
- IC50 [1, 8]: 1.71 µM

Compound: CO[C@@]12[C@H](COC(N)=O)C3=C(C(=O)C(C)=C(N)C3=O)N1C[C@@H]1N[C@@H]12 [MMC, Mitomycin C]
- IC50 ([1]; Homo sapiens, HT-29, 2 h): 1.83 µM
- IC50 ([1]; Homo sapiens, HT-29, 24 h): 0.175 µM
- IC50 ([1]; Homo sapiens, HT-29, 48 h): 0.109 µM
- IC50 ([1]; Homo sapiens, HT-29, 72 h): 0.199 µM
- Half-Life ([2]; Mitomycin C in plasma after high dose of MP-3854 (25 mg/kg MMC-eq)): LLD
- Half-Life ([2]; Mitomycin C in plasma after low dose of MP-3854 (5 mg/kg MMC-eq)): LLD
- % T/C ([3]; Table 9, 2 mpk q7d x3): 72%
- % T/C ([3]; Table 9, 3 mpk q7d x3): 13%
- % T/C ([3]; Table 9, 5 mpk q7d x3): 5%
- % T/C ([3]; Table 9, 5 mpk single): 77%
- % T/C [3, 9]: 83%
- Median Survival [3, 9]: 48 days
- TGD (1000 mm3 Days) [3, 9]: 5.2 days
- % T/C [3, 10]: 48%
- Median Survival [3, 10]: 54 days
- TGD (1000 mm3 Days) [3, 10]: 9.5 days
- % T/C (A549 NSCLC xenografts): 90%
- Median Survival (A549 NSCLC xenografts): 76 days
- TGD (1000 mm3 Days) (A549 NSCLC xenografts): 32 days
- half-life alpha [4]: 8 min
- half-life terminal [4]: 48 min

Compound: CO[C@@]12[C@H](COC(N)=O)C3=C(C(=O)C(C)=C(N)C3=O)N1C[C@H]1[C@@H]2N1C(=O)OCCSSCCN1CCN(C)CC1 [MP-3854, 2-((2-(4-methylpiperazin-1-yl)ethyl)disulfanyl)ethyl (1aS,8S,8aR,8bS)-6-amino-8-((carbamoyloxy)methyl)-8a-methoxy-5-methyl-4,7-dioxo-1a,4,7,8,8a,8b-hexahydroazirino[2′,3′:3,4]pyrrolo[1,2-a]indole-1(2H)-carboxylate]
- conversion of prodrug [5]: complete conversion
- MMC generated ([5]; HPLC 360 nm): 92 Area %
- IC50 ([1]; Homo sapiens, HT-29, 2 h drug incubation, read-out: IC50): 41.5 µM
- IC50 ([1]; Homo sapiens, HT-29, 24 h drug incubation, read-out: IC50): 4.17 µM
- IC50 ([1]; Homo sapiens, HT-29, 72 h drug incubation, read-out: IC50): 3.09 µM

Compound: CO[C@@]12[C@H](COC(N)=O)C3=C(C(=O)C(C)=C(N)C3=O)N1C[C@H]1[C@@H]2N1C(=O)OCCSSCCN1CCCCC1 [MP-3827]
- IC50 [1, 6]: 5.93 µM
- IC50 [1, 7]: 2.64 µM
- IC50 ([1]; 48 h drug incubation, read-out: IC50): 1.69 µM
- IC50 [1, 8]: 1.29 µM
